According to patent US20210255193A1, “LYSINE REACTIVE PROBES AND USES THEREOF” (The Scripps Research Institute, priority 2017, published 2021):

Key:
Assay in all cases: competitive isoTOP-ABPP
Format in all cases: binding
[1] = molecular target: T1, ISOC2 Isochorismatase domain-containing protein 2, mitochondrial (Homo sapiens, UniProt Q96AB3); conditions: for isoTOP-ABPP ratio (R) at liganded lysine Q96AB3_K178: 50 uM, in vitro, sol, 231; for isoTOP-ABPP ratio, lysine Q96AB3_K178: 50 uM_231_sol_in vitro
T1 construct: isoTOP-ABPP experiments performed in cell lysates (in vitro); endogenous in cells; host or cells: soluble proteome of human cancer cell lines (MDA-MB-231; Ramos and Jurkat also prepared)
T1 sequence (Q96AB3 1-205): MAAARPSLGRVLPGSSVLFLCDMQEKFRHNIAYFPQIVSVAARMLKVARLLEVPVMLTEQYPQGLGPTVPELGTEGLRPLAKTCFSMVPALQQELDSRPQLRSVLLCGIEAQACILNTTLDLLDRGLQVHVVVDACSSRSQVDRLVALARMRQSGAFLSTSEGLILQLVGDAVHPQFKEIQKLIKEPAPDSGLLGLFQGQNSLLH
Protocol: (§1) In vitro covalent fragment treatment for isoTOP-ABPP. All compounds were made up as solutions in DMSO (100×) and were used at a final concentration of 50 μM for activated esters and 100 μM for guanidinylating agents. For each profiling sample, 0.5 ml of lysate was treated with 5 μl of the 100× compound stock solution or 5 μl of DMSO. Samples were treated with activated esters for
(§2) STP-alkyne labeling and click chemistry. For concentration-dependent reactivity measurements by isoTOP-ABPP, 0.5 ml proteome aliquots were treated at ambient temperature with 1 mM STP-alkyne 1 (5 μl of 100 mM stock in DMSO) and 0.1 mM STP alkyne 1 (5 μl of 10 mM stock in DMSO), respectively. For competitive isoTOP-ABPP, after in vitro fragment treatment (detailed above), the samples were labeled for 1 h at ambient temperature with 0.1 mM STP-alkyne 1 (5 μl of 10 mM stock in DMSO). Samples were conjugated by copper-mediated azide-alkyne cycloaddition (CuAAC) to either the light (1 mM STP-alkyne or fragment treated) or heavy (0.1 mM STP-alkyne or DMSO treated) TEV tags (10 μl of 5 mM stocks in DMSO, final concentration=100 μM) using tris(2-carboxyethyl)phosphine hydrochloride
(§3) R value calculation and processing. The ratios of light and heavy MS1 peaks for each unique peptide were quantified with a CIMAGE software using default parameters (3 MS1 acquisitions per peak and signal to noise threshold set to 2.5). For reactivity measurements by isoTOP-ABPP, the R value was calculated from the ratio of MS1 peak areas, comparing the 1 mM STP alkyne sample (light TEV tag) with the 0.1 mM STP alkyne sample (heavy TEV tag). For competitive isoTOP-ABPP, the R value was calculated from the ratio of MS1 peak areas, comparing the DMSO treated sample (heavy TEV tag) with the compound treated sample (light TEV tag). […] Ratios for unique peptide entries are calculated for each experiment; overlapping peptides with the same modified lysine (for example, different charge states, MudPIT chromatographic steps or tryptic termini) are grouped together and the median ratio is reported as the final ratio (R). The peptide ratios reported by CIMAGE were further filtered to ensure the removal or correction of low-quality ratios in each individual data set. The quality filters applied were the following: removal of half tryptic peptides; for ratios with high standard deviations from the median (90% of the median or above) the lowest ratio was taken instead of the median; removal of peptides with R=20 and only a single MS2 event triggered during the elution of the parent ion; manual annotation of all the peptides with ratios of 20, removing any peptides with low quality elution profiles that remained after the previous curation steps (only done for competitive isoTOP-ABPP).
(§4) Cross-data processing for fragment screening. For compound treated samples, biological replicates of the same condition were averaged, if the standard deviation was below 60% of the mean; otherwise, for lysines with at least one R value <4 for a particular compound, the lowest value of the ratio set was taken. For lysines, where all R values for a particular compound were ≥4, the average was reported. For peptides containing several possible modified lysines, the lysine with the highest number of quantification events was used for analysis and the remaining, redundant peptides were reported as alternative modification sites. Peptides included in the aggregate dataset (those used for further bioinformatics and statistical analyses) were required to have been quantified in 2 experiments for competitive isoTOP-ABPP. Lysines were categorized as liganded, if they had at least one ratio R≥4 (hit fragments). For liganded lysines with R=20 for all liganding events, lysines were required to have been quantified with R=20 in two separate experiments and were further required to have been quantified with R<20 in one additional experiment.

[2] = molecular target: T2, GLOD4 Glyoxalase domain-containing protein 4 (Homo sapiens, UniProt Q9HC38); conditions: for isoTOP-ABPP ratio (R) at liganded lysine Q9HC38_K305: 50 uM, in vitro, sol, 231; for isoTOP-ABPP ratio, lysine Q9HC38_K305: 50 uM_231_sol_in vitro
T2 construct: endogenous in cells; host or cells: MDA-MB-231 (soluble fraction of lysate)
T2 sequence (Q9HC38 1-313): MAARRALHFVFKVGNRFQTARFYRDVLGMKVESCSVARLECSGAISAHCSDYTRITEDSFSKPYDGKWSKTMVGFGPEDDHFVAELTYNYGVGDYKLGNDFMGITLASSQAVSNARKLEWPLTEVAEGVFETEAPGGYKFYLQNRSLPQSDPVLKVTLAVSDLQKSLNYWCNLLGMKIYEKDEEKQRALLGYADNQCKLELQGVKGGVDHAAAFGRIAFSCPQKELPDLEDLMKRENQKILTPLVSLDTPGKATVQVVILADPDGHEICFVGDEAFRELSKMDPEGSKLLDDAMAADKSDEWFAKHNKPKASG
Protocol: as §1, §2, §3, §4

[3] = molecular target: T3, GSTT2B Glutathione S-transferase theta-2B (Homo sapiens, UniProt P0CG30); conditions: for isoTOP-ABPP ratio (R) at liganded lysine P0CG30_K53: 50 uM, in vitro, sol, 231; for isoTOP-ABPP ratio, lysine P0CG30_K53: 50 uM_231_sol_in vitro
T3 construct: isoTOP-ABPP experiments performed in cell lysates (in vitro); endogenous in cells; host or cells: MDA-MB-231 soluble lysate
T3 sequence (P0CG30 1-244): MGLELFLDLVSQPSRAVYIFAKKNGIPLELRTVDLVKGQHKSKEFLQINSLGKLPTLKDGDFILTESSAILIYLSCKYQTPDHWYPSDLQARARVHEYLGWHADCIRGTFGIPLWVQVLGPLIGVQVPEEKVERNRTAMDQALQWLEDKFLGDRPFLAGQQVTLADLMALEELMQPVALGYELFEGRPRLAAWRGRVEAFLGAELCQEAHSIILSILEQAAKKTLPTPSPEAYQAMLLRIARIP
Protocol: as §1, §2, §3, §4

[4] = molecular target: T4, ERAP1 Endoplasmic reticulum aminopeptidase 1 (Homo sapiens, UniProt Q9NZ08); conditions: for isoTOP-ABPP ratio (R) at liganded lysine Q9NZ08_K685: 50 uM, in vitro, sol, 231; for isoTOP-ABPP ratio, lysine Q9NZ08_K685: 50 uM_231_sol_in vitro
T4 construct: endogenous in cells; host or cells: MDA-MB-231 lysate
T4 sequence (Q9NZ08 whole entry): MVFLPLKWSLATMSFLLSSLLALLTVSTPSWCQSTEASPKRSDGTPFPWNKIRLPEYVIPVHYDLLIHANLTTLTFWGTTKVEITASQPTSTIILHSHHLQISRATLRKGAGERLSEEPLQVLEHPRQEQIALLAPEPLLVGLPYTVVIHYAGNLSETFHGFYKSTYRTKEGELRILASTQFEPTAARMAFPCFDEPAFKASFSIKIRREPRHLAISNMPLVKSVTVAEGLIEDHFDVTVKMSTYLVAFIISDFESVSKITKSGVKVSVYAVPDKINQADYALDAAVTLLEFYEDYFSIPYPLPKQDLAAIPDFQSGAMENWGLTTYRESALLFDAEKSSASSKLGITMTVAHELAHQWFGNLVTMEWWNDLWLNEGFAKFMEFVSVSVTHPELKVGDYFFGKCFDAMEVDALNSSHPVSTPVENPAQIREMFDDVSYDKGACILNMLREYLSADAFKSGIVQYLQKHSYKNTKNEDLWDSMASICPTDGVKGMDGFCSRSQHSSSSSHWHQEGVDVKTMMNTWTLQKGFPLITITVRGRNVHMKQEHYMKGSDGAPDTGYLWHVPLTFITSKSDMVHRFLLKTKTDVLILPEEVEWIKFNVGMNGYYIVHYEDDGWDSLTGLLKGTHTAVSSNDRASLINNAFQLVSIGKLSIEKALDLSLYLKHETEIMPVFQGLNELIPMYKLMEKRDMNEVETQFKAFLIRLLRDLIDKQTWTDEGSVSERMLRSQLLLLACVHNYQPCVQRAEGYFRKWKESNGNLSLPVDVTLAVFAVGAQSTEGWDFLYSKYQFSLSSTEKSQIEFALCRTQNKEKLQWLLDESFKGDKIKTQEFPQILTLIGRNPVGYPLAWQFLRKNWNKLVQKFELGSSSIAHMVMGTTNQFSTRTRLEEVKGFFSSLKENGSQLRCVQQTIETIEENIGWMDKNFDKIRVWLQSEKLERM
Protocol: as §1, §2, §3, §4

[5] = molecular target: T5, MAP1LC3B Microtubule-associated proteins 1A/1B light chain (Homo sapiens, UniProt Q9GZQ8); conditions: for isoTOP-ABPP ratio, lysine Q9GZQ8_K51: 50 uM_231_sol_in vitro
T5 construct: isoTOP-ABPP experiments performed in cell lysates (in vitro); endogenous in cells; host or cells: soluble proteome of human cancer cell lines (MDA-MB-231; Ramos and Jurkat also prepared)
Protocol: as §1, §2, §3, §4

[6] = molecular target: T6, MRPS24 28S ribosomal protein S24, mitochondrial (Homo sapiens, UniProt Q96EL2); conditions: for isoTOP-ABPP ratio, lysine Q96EL2_K94: 50 uM_231_sol_in vitro
T6 construct: isoTOP-ABPP experiments performed in cell lysates (in vitro); endogenous in cells; host or cells: soluble proteome of human cancer cell lines (MDA-MB-231; Ramos and Jurkat also prepared)
Protocol: as §1, §2, §3, §4

SMILES | isoTOP-ABPP ratio (R) at liganded lysine Q96AB3_K178 [1] | isoTOP-ABPP ratio (R) at liganded lysine Q9HC38_K305 [2] | isoTOP-ABPP ratio (R) at liganded lysine P0CG30_K53 [3] | isoTOP-ABPP ratio (R) at liganded lysine Q9NZ08_K685 [4] | isoTOP-ABPP ratio (R) at liganded lysine Q9GZQ8_K51 ([5]; 50 uM, in vitro, sol, 231) | isoTOP-ABPP ratio (R) at liganded lysine Q96EL2_K94 ([6]; 50 uM, in vitro, sol, 231) | isoTOP-ABPP ratio, lysine Q96AB3_K178 [1] | isoTOP-ABPP ratio, lysine Q9HC38_K305 [2] | isoTOP-ABPP ratio, lysine P0CG30_K53 [3] | isoTOP-ABPP ratio, lysine Q9NZ08_K685 [4] | isoTOP-ABPP ratio, lysine Q9GZQ8_K51 [5] | isoTOP-ABPP ratio, lysine Q96EL2_K94 [6]
O=C(Oc1ccc([N+](=O)[O-])cc1[N+](=O)[O-])c1ccccc1Nc1cccc(C(F)(F)F)c1 [fragment 40, 2,4-Dinitrophenyl 2-((3-(trifluoromethyl)phenyl)amino)benzoate] | 0.9 | 0.8 | 0.6 | 1.1 | 1.0 | – | – | – | – | – | – | –
CC(=O)Oc1ccc([N+](=O)[O-])cc1[N+](=O)[O-] [fragment 43, 2,4-Dinitrophenyl acetate] | 1.1 | 0.7 | 0.6 | 1.1 | – | 1.1 | – | – | – | – | – | –
O=C(CCc1ccc2c(c1)OCO2)Oc1ccc([N+](=O)[O-])cc1[N+](=O)[O-] [fragment 45, 2,4-Dinitrophenyl 3-(benzo[d][1,3]dioxol-5-yl)propanoate] | – | – | – | – | – | – | 1.8 | 0.7 | 0.5 | 1.3 | 1.0 | –
O=C(ON1C(=O)CCC1=O)c1cc(C(F)(F)F)cc(C(F)(F)F)c1 [fragment 46, 3,5-Bis(trifluoromethyl)benzoic acid NHS ester] | – | – | – | – | – | – | 1.5 | – | 1.8 | 2.1 | – | 1.0
O=C(Oc1c(F)c(F)c(C(F)(F)F)c(F)c1F)c1cc(C(F)(F)F)cc(C(F)(F)F)c1 [fragment 47, 2,3,5,6-Tetrafluoro-4-(trifluoromethyl)phenyl 3,5-bis(trifluoromethyl)benzoate] | – | – | – | – | – | – | 1.2 | – | 0.6 | 1.3 | 0.9 | –
O=C(Oc1c(F)c(F)cc(F)c1F)c1cc(C(F)(F)F)cc(C(F)(F)F)c1 [fragment 48, 2,3,5,6-Tetrafluorophenyl 3,5-bis(trifluoromethyl)benzoate] | – | – | – | – | – | – | 0.9 | – | 0.9 | 1.5 | 0.8 | 1.0
NC(=O)c1cc(C(F)(F)F)cc(C(F)(F)F)c1 [fragment 51, reference compound] | – | – | – | – | – | – | 0.9 | 0.9 | 0.7 | 0.9 | – | 0.9
